According to US20160257997A1, “METHODS FOR WHOLE-CELL ANALYSIS OF GRAM-POSITIVE BACTERIA” (AdvanDx, Inc., priority 2009, published 2016):
{Biotin} = biotin label at the PNA N-terminus, attached through the O linker (8-amino-3,6-dioxaoctanoic acid); {PacBlue} = Pacific Blue dye label at the PNA N-terminus, attached through the O linker; {TAMRA} = TAMRA (TAM) fluorescent label at the PNA N-terminus

Legend:
[1] = system: MecA; assay: PNA FISH with tyramide signal amplification (Example 4); assay type: cell-based, S. aureus; details: MRSA 33591, oxacillin-induced; 500 nM total; streptavidin-HRP, AlexaFluor 594-labeled tyramide; FIG. 4
Method: Cell fixation and permeabilization was also performed as described in Example 1 except that prior to hybridization the slides were treated at 80° C. for 5 minutes with 75 μL of TE buffer (Tris-HCl 100 mM, EDTA, 10 mM, pH 8.0). For hybridization, 25 μL of HB** containing five biotin-labeled PNA probes (Probes 11, 12, 13, 14 and 15 (concentration of each probe was 100 nM for a total concentration of 500 nM) was applied on one slide. Another slide was probed with one biotin-labeled, C. albicans—specific rRNA-directed probe (probe 10, concentration 500 nM) in control experiment. Hybridization and washing were performed as described in Example 1. Slides were then processed with reagents commercially available from Molecular Probes (TSA Kit #25, Eugene, Oreg.) according to manufacturer's protocol. Specifically, slide-deposited cells were first incubated 30 min with 0.075 mL of Blocking Buffer (BB) then 30 min with 0.1 mL of streptavidin-HRP diluted in BB. After washing (3×5 min wash) with PBS-Tween, the cells were incubated 10 min with 0.075 mL of AlexaFluor 594-labeled tyramide solution and washed (3×5 min wash) again. A drop of MM and cover slip was then applied on air dried slides and the cells were examined by FM. […]

[2] = system: rRNA; assay: PNA FISH with rRNA-directed probes on S. aureus cells (Examples 2-3); assay type: cell-based
Source text: Some (but not all) of the visible colonies in the slides are surrounded by a circle (slide A) or a square (Slide B). This should assist in analysis of the slides where black and white copies of the Figures are provided in lieu of color copies. In Image A-1 and A-2, the same colonies are encircled to simplify the comparison. The conditions for each of the slides examined in FIG. 2, are as follows: • A-1) MRSA 43300, Dual band filter • B-1) MSSA 29213, Dual band filter • A-2) MRSA 43300, FITC filter • B-2) MSSA 29213, FITC filter

[3] = system: rRNA; assay: PNA FISH with rRNA-directed probes on S. epidermidis cells (Example 3); details: MRSE 51625 in mixture with MRSA 43300
Method: In this example a mixture of MRSA 43300 and MRSE 51625 was prepared and examined using three fluorescent filters as described below. The growth and oxacillin induction of S. aureus cells was performed as described in Example 1. […] S. epidermidis was grown essentially as described for S. aureus in Example 1. Cell fixation and permeabilization of both MRSA 43300 and MRSE 51625 was performed as described in Example 1.
The remainder of the procedure was performed as described in Example 1. These images are of the same section of the slide. In each case, only the fluorescence filter was changed.

[4] = system: MecA mRNA; assay: PNA FISH of MecA mRNA in permeabilized S. aureus (Examples 1-3); assay type: cell-based; details: MRSA 43300, oxacillin-induced; FIG. 1 Slides B-D; Probes 1-5 794 nM combined, Probe 2 750 nM, Probe 6 750 nM

Substance: AGAGAGCAGCATCCA (all peptide nucleic acid (PNA), 5' {Biotin}; peptide nucleic acid FISH probe, chemically synthesized) [Probe 10, Biotin-labeled C. albicans-specific rRNA-directed PNA probe, control]
- fluorescent staining of bacteria after tyramide signal amplification [1]: absence of visible bacteria

Substance: TAM-GCTTCTCGTCCGTTC (all peptide nucleic acid (PNA), 5' {TAMRA}; peptide nucleic acid FISH probe; listed as Staphylococcus aureus) [Probe 8]
- fluorescent staining of bacteria (dual band filter) ([2]; MRSA 43300 and MSSA 29213, 500 nM, FIG. 2 Slides A-1 and B-1): Red fluorescent stained bacteria
- fluorescent staining of bacteria (dual band filter) ([2]; MRSA 43300 in mixture with MRSE 51625, FIG. 3 Image A): red fluorescence
- fluorescent staining of bacteria (dual band filter) ([3]; FIG. 3 Image A): no TAMRA signal

Substance: TCAATGAGCAAAGGT (all peptide nucleic acid (PNA); fluorescein label, position not given here; listed as Escherichia coli) [Probe 6, Flu-labeled E. coli specific rRNA-directed PNA probe, control]
- fluorescent staining of bacteria (FITC filter) [4]: No signal was observed

Substance: TCCTCGTCTGTTCGC (all peptide nucleic acid (PNA), 5' {PacBlue}; peptide nucleic acid FISH probe, chemically synthesized; listed as Staphylococcus epidermidis) [Probe 9]
- fluorescent staining of bacteria (DAPI filter) ([3]; 500 nM, FIG. 3 Image B): Blue stained MRSE bacteria are visible
